From patent publication US20210395239A1 (Hoffmann-La Roche Inc., priority 2018, published 2021) come the findings set out here.

This assay has as its target T1, hTLR9 (Homo sapiens, UniProt Q9NR96).
T1 sequence (Q9NR96 26-1032): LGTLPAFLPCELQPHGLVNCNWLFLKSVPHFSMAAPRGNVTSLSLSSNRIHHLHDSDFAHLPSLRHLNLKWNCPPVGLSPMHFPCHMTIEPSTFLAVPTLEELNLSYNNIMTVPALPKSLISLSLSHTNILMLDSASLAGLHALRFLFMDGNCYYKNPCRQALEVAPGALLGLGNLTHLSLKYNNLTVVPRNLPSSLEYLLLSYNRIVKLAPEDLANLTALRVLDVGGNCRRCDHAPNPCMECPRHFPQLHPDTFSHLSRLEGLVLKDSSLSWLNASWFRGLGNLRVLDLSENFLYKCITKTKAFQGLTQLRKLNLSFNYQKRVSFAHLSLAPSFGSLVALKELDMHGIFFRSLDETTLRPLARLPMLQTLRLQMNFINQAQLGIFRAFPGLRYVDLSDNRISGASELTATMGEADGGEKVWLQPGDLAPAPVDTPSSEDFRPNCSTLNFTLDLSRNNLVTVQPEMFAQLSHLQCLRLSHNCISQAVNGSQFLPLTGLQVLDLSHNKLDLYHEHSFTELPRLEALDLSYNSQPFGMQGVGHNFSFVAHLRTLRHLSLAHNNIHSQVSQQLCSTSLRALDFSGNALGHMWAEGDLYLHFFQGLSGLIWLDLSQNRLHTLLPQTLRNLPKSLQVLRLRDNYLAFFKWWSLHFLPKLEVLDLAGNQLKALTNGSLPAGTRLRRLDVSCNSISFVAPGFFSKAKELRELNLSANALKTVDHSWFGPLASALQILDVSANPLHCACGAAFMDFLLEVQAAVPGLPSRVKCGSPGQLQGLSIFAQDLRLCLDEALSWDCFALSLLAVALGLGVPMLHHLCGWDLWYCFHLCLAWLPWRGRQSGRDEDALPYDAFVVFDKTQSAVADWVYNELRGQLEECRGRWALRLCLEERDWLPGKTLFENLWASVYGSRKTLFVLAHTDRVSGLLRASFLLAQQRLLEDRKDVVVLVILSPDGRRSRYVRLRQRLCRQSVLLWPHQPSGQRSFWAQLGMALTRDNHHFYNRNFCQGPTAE
Description: HEK293-Blue-hTLR-9 cells assay (SEAP reporter, ODN2006 stimulation). The assay is classed as cell-based. Also noted: host or cells: HEK293 (HEK-Blue hTLR9). The following applies: HEK293-Blue-hTLR9 cells, ODN2006, 20 hrs; read-out: HEK/hTLR9 IC50. The method in brief:
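Antagonism read as lowered SEAP reporter absorbance (620–655 nm, QUANTI-Blue, 2 h, 37 °C) in supernatants. Before that, ODN2006-stimulated HEK293-Blue cells stably expressing human TLR9 were exposed to compound dilutions at 1% final DMSO for 20 h at 37 °C.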
On to `Cc1cc(N2CCN(C[C@H]3CN(c4ccc(C#N)c5ncccc45)C[C@@H](C)O3)CC2)nc(N2C[C@@H](N)[C@@H](F)C2)n1` [Example 55, 5-[(2S,6R)-2-[[4-[2-[(3R,4S)-3-amino-4-fluoro-pyrrolidin-1-yl]-6-methyl-pyrimidin-4-yl]piperazin-1-yl]methyl]-6-methyl-morpholin-4-yl]quinoline-8-carbonitrile], for which the IC50 was 0.032 µM. The result for `C[C@@H]1CN(c2ccc(C#N)n3ncc(F)c23)C[C@H](CN2CCN(c3ccc([C@@H]4CNCCO4)cc3)CC2)O1` [Example 177, 3-fluoro-4-[(2R,6S)-2-methyl-6-[[4-[4-[(2R)-morpholin-2-yl]phenyl]piperazin-1-yl]methyl]morpholin-4-yl]pyrazolo[1,5-a]pyridine-7-carbonitrile] reads 0.098 µM; that for `C[C@@H]1CN(c2ccc(C#N)c3ncccc23)C[C@H](CN2CCN(c3cccc(C4CNCCO4)c3)CC2)O1` (stereo partly drawn) [Example 62, 5-[(2R,6S)-2-methyl-6-[[4-(3-morpholin-2-ylphenyl)piperazin-1-yl]methyl]-morpholin-4-yl]quinoline-8-carbonitrile], 0.092 µM; that for `C[C@@H]1CN(c2ccc(C#N)c3ncccc23)C[C@H](CN2CCN(c3ccnc(N4CCN(C(=O)CN(C)C)CC4)n3)CC2)O1` [Example 32, 5-[(2S,6R)-2-[[4-[2-[4-[2-(dimethylamino)acetyl]piperazin-1-yl]pyrimidin-4-yl]piperazin-1-yl]methyl]-6-methyl-morpholin-4-yl]quinoline-8-carbonitrile], 0.073 µM. The value for `C[C@@H]1CN(c2cc(=O)n(C)c3ncccc23)C[C@H](CN2CC(c3ccc(N4CC5(CNCCO5)C4)cc3)C2)O1` [Example 173, 1-methyl-4-[(2R,6S)-2-methyl-6-[[3-[4-(5-oxa-2,8-diazaspiro[3.5]nonan-2-yl)phenyl]azetidin-1-yl]methyl]morpholin-4-yl]-1,8-naphthyridin-2-one] was 0.06 µM; that for `Cc1cc(N2CCN(C[C@H]3CN(c4ccc(C#N)c5ncccc45)C[C@@H](C)O3)CC2)nc(N2CCNCC(O)C2)n1` (stereo partly drawn) [Example 66, 5-[(2S,6R)-2-[[4-[2-(6-hydroxy-1,4-diazepan-1-yl)-6-methyl-pyrimidin-4-yl]piperazin-1-yl]methyl]-6-methyl-morpholin-4-yl]quinoline-8-carbonitrile] was 0.032 µM. The value for `CO[C@H]1CN(c2cccc(N3CCN(C[C@H]4CN(c5ccc(C#N)c6ncccc56)C[C@@H](C)O4)CC3)n2)C[C@H]1N` [Example 42, 5-[(2S,6R)-2-[[4-[6-[(3R,4S)-3-amino-4-methoxy-pyrrolidin-1-yl]-2-pyridyl]piperazin-1-yl]methyl]-6-methyl-morpholin-4-yl]quinoline-8-carbonitrile] was 0.147 µM. Take `CO[C@H]1CN(c2nccc(N3CCN(C[C@H]4CN(c5ccc(C#N)c6ncccc56)C[C@@H](C)O4)CC3)n2)C[C@@H]1N` [Example 26, 5-[(2S,6R)-2-[[4-[2-trans-(3-amino-4-methoxy-pyrrolidin-1-yl)pyrimidin-4-yl]piperazin-1-yl]methyl]-6-methyl-morpholin-4-yl]quinoline-8-carbonitrile]: the IC50 came to 0.032 µM. The result for `C[C@@H]1CN(c2ccc(C#N)c3ncccc23)C[C@H](CN2CCN(c3ccc(N4CCNCC4)nc3)CC2)O1` [Example 13, 5-[(2R,6S)-2-methyl-6-[[4-(6-piperazin-1-yl-3-pyridyl)piperazin-1-yl]methyl]morpholin-4-yl]quinoline-8-carbonitrile] reads 0.142 µM; that for `C[C@@H]1CN(c2cc(=O)n(C)c3ncccc23)C[C@H](CN2CC(c3ccc(N4CC(F)[C@H](N)C4)cc3)C2)O1` (stereo in doubt) [Example 174, 4-[(2S,6R)-2-[[3-[4-[(3R,4R)-3-amino-4-fluoro-pyrrolidin-1-yl]phenyl]azetidin-1-yl]methyl]-6-methyl-morpholin-4-yl]-1-methyl-1,8-naphthyridin-2-one], 0.086 µM; that for `C[C@@H]1CN(c2ccc(C#N)n3ncc(F)c23)C[C@H](CN2CCN(c3ccc(N4CC5(CNCCO5)C4)nc3)CC2)O1` [Example 169, 3-fluoro-4-[(2R,6S)-2-methyl-6-[[4-[6-(5-oxa-2,8-diazaspiro[3.5]nonan-2-yl)-3-pyridyl]piperazin-1-yl]methyl]morpholin-4-yl]pyrazolo[1,5-a]pyridine-7-carbonitrile], 0.078 µM. The result for `C[C@@H]1CN(c2ccc(C#N)n3ncc(F)c23)C[C@H](CN2CCN(c3ccc(N4CC[C@@H](N)[C@H](F)C4)nc3)CC2)O1` [Example 175, 4-[(2S,6R)-2-[[4-[6-[(3R,4R)-4-amino-3-fluoro-1-piperidyl]-3-pyridyl]piperazin-1-yl]methyl]-6-methyl-morpholin-4-yl]-3-fluoro-pyrazolo[1,5-a]pyridine-7-carbonitrile] reads 0.066 µM; that for `CO[C@H]1CN(c2nc(C)cc(N3CCN(C[C@H]4CN(c5ccc(C#N)c6ncccc56)C[C@@H](C)O4)CC3)n2)CC1N` (relative stereo) [Example 59, 5-[(2R,6S)-2-methyl-6-[[4-[6-methyl-2-[trans-3-amino-4-methoxy-pyrrolidin-1-yl]pyrimidin-4-yl]piperazin-1-yl]methyl]morpholin-4-yl]quinoline-8-carbonitrile], 0.032 µM; that for `Cc1cc(N2CCN(C[C@H]3CN(c4ccc(C#N)c5ncccc45)C[C@@H](C)O3)CC2)nc(N2CC(N)C(F)C2)n1` (stereo in doubt) [Example 54, 5-[(2S,6R)-2-[[4-[2-[(3S,4R)-3-amino-4-fluoro-pyrrolidin-1-yl]-6-methyl-pyrimidin-4-yl]piperazin-1-yl]methyl]-6-methyl-morpholin-4-yl]quinoline-8-carbonitrile], 0.034 µM. The result for `Cc1cc(N2CCN(C[C@H]3CN(c4ccc(C#N)c5ncccc45)C[C@@H](C)O3)CC2)nc(N2CC(N)C(F)(F)C2)n1` (stereo partly drawn) [Example 63, 5-[(2S,6R)-2-[[4-[2-(4-amino-3,3-difluoro-pyrrolidin-1-yl)-6-methyl-pyrimidin-4-yl]piperazin-1-yl]methyl]-6-methyl-morpholin-4-yl]quinoline-8-carbonitrile] reads 0.246 µM; that for `C[C@@H]1CN(c2ccc(C#N)c3ncccc23)C[C@H](CN2CCN(c3cccc(N4CCNCC(O)C4)n3)CC2)O1` (stereo partly drawn) [Example 41, 5-[(2S,6R)-2-[[4-[6-(6-hydroxy-1,4-diazepan-1-yl)-2-pyridyl]piperazin-1-yl]methyl]-6-methyl-morpholin-4-yl]quinoline-8-carbonitrile], 0.15 µM. As to `C[C@@H]1CN(c2ccc(C#N)c3ncccc23)C[C@H](CN2CCN(c3cccc(N4CC(N)C(F)C4)n3)CC2)O1` (stereo partly drawn) [Example 40, 5-[(2S,6R)-2-[[4-[6-(3-amino-4-fluoro-pyrrolidin-1-yl)-2-pyridyl]piperazin-1-yl]methyl]-6-methyl-morpholin-4-yl]quinoline-8-carbonitrile], the IC50 amounted to 0.134 µM. The result for `C[C@@H]1CN(c2ccc(C#N)c3ncccc23)C[C@H](CN2CCN(c3cccc(N4CCN(C)CC4)n3)CC2)O1` [Example 33, 5-[(2R,6S)-2-methyl-6-[[4-[6-(4-methylpiperazin-1-yl)-2-pyridyl]piperazin-1-yl]methyl]morpholin-4-yl]quinoline-8-carbonitrile] reads 0.116 µM; that for `C[C@@H]1CN(c2cc(=O)n(C)c3ncccc23)C[C@H](CN2CC(c3ccc(N4CC(C)(N)C4)cc3)C2)O1` [Example 176, 4-[(2S,6R)-2-[[3-[4-(3-amino-3-methyl-azetidin-1-yl)phenyl]azetidin-1-yl]methyl]-6-methyl-morpholin-4-yl]-1-methyl-1,8-naphthyridin-2-one], 0.101 µM. The value for `Cc1cc(N2CCN(C[C@H]3CN(c4ccc(C#N)c5ncccc45)C[C@@H](C)O3)CC2)nc(N2C[C@@H]3COC[C@@H](C2)N3)n1` [Example 58, 5-[(2R,6S)-2-methyl-6-[[4-[6-methyl-2-[(1R,5R)-3-oxa-7,9-diazabicyclo[3.3.1]nonan-7-yl]pyrimidin-4-yl]piperazin-1-yl]methyl]morpholin-4-yl]quinoline-8-carbonitrile] was 0.045 µM. `C[C@@H]1CN(c2ccc(C#N)c3ncccc23)C[C@H](CN2CCN(c3ccnc(N4CC(N)C4)n3)CC2)O1` [Example 23, 5-[(2S,6R)-2-[[4-[2-(3-aminoazetidin-1-yl)pyrimidin-4-yl]piperazin-1-yl]methyl]-6-methyl-morpholin-4-yl]quinoline-8-carbonitrile]: the IC50 came out at 0.232 µM.
